Experimental data taken from PubChem BioAssay AID330 (DTP/NCI, 2004).
Where “and” joins values, the source holds several entries; their conditions need not be identical. Equal entries are not always repeated. Toxic doses and inconclusive results are not listed.

Tested on: P388 leukemia ip, CD2F1 mice, survival T/C
Assay: NCI In Vivo Anticancer Drug Screen. Data for tumor model P388 Leukemia (intraperitoneal) in CD2F1 (CDF1) mice
Details: endpoint: median survival time, higher = longer survival
How it was run: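 Mice carrying the transplanted tumor received test compound or vehicle. Survival was recorded in each group, and the value is the treated-group measurement divided by that of the vehicle-treated control group.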

[1] = dose: 200.0 mg/kg/injection, schedule: Q01DX009 (ip), vehicle: saline with Tween-80
[2] = dose: 50.0 mg/kg/injection, schedule: Q01DX005 (ip), vehicle: saline with Tween-80
[3] = dose: 100.0 mg/kg/injection, schedule: Q01DX005 (ip), vehicle: saline with Tween-80
[4] = dose: 200.0 mg/kg/injection, schedule: Q01DX005 (ip), vehicle: saline with Tween-80
[5] = dose: 60.0 mg/kg/injection, schedule: Q01DX005 (ip), vehicle: saline with Tween-80
[6] = dose: 120.0 mg/kg/injection, schedule: Q01DX005 (ip), vehicle: saline with Tween-80
[7] = dose: 50.0 mg/kg/injection, schedule: Q01DX009 (ip), vehicle: Klucel (hydroxypropylcellulose) (HPC)
[8] = dose: 100.0 mg/kg/injection, schedule: Q01DX009 (ip), vehicle: Klucel (hydroxypropylcellulose) (HPC)
[9] = dose: 200.0 mg/kg/injection, schedule: Q01DX009 (ip), vehicle: Klucel (hydroxypropylcellulose) (HPC)
[10] = dose: 50.0 mg/kg/injection, schedule: Q01DX005 (ip), vehicle: Klucel (hydroxypropylcellulose) (HPC)
[11] = dose: 100.0 mg/kg/injection, schedule: Q01DX005 (ip), vehicle: Klucel (hydroxypropylcellulose) (HPC)
[12] = dose: 200.0 mg/kg/injection, schedule: Q01DX005 (ip), vehicle: Klucel (hydroxypropylcellulose) (HPC)
[13] = dose: 240.0 mg/kg/injection, schedule: Q01DX005 (ip), vehicle: saline with Tween-80
[14] = dose: 50.0 mg/kg/injection, schedule: Q01DX009 (ip), vehicle: saline with Tween-80
[15] = dose: 100.0 mg/kg/injection, schedule: Q01DX009 (ip), vehicle: saline with Tween-80

## C[C@@H]1C[C@H]2CC[C@H](O2)[C@H](C)C(=O)O[C@@H](C)C[C@@H]2CC[C@@H](O2)[C@@H](C)C(=O)O[C@H](C)C[C@H]2CC[C@H](O2)[C@H](C)C(=O)O[C@@H](C)C[C@@H]2CC[C@@H](O2)[C@@H](C)C(=O)O1
dose: 132.0 mg/kg/injection, schedule: Q01DX009 (ip), vehicle: saline with Tween-80
  T/C: 100 % of control
[1]
  T/C: 104 % of control
dose: 300.0 mg/kg/injection, schedule: Q01DX009 (ip), vehicle: saline with Tween-80
  T/C: 104 % of control

## O=C(N/N=C/c1cc(Br)ccc1[O-])c1cccnc1.O=C(N/N=C/c1cc(Br)ccc1[O-])c1cccnc1.[Zn+2]
dose: 100.0 mg/kg/injection, schedule: Q01DX001 (ip), vehicle: Klucel (hydroxypropylcellulose) (HPC)
  T/C: 98 % of control
dose: 200.0 mg/kg/injection, schedule: Q01DX001 (ip), vehicle: Klucel (hydroxypropylcellulose) (HPC)
  T/C: 93 % of control
dose: 400.0 mg/kg/injection, schedule: Q01DX001 (ip), vehicle: Klucel (hydroxypropylcellulose) (HPC)
  T/C: 93 % of control

## Nc1ncnc2c1ncn2C(/C=N/Nc1ccccc1)OC(/C=N\Nc1ccccc1)CO (centres undefined)
[2]
  T/C: 106 % of control
[3]
  T/C: 106 % of control
[4]
  T/C: 107 % of control

## CC(=O)/C(C)=C/O
dose: 50.0 mg/kg/injection, schedule: Q01DX005 (ip), vehicle: saline
  T/C: 98 % of control
dose: 100.0 mg/kg/injection, schedule: Q01DX005 (ip), vehicle: saline
  T/C: 104 % of control
dose: 200.0 mg/kg/injection, schedule: Q01DX005 (ip), vehicle: saline
  T/C: 104 % of control

## O=C(Nc1ccc(CC2=NCCCN2)cc1)c1ccc(C(=O)Nc2ccc(CC3=NCCCN3)cc2)cc1
dose: 0.78 mg/kg/injection, schedule: Q01DX005 (ip), vehicle: saline with Tween-80
  T/C: 93 % of control
dose: 1.56 mg/kg/injection, schedule: Q01DX005 (ip), vehicle: saline with Tween-80
  T/C: 112 % of control

## O=C1C=C(Nc2ccccn2)C(=O)C=C1Nc1ccccn1
[2]
  T/C: 107 % of control
[3]
  T/C: 107 % of control
[4]
  T/C: 105 % of control

## C1CCc2[nH]nc(-c3n[nH]c4c3CCCCC4)c2CC1
dose: 60.0 mg/kg/injection, schedule: Q01DX005 (ip), vehicle: Klucel (hydroxypropylcellulose) (HPC)
  T/C: 100 % of control
dose: 120.0 mg/kg/injection, schedule: Q01DX005 (ip), vehicle: Klucel (hydroxypropylcellulose) (HPC)
  T/C: 94 % of control
dose: 240.0 mg/kg/injection, schedule: Q01DX005 (ip), vehicle: Klucel (hydroxypropylcellulose) (HPC)
  T/C: 96 % of control

## COc1cccc2c1C(=O)c1c(O)c3c(c(O)c1C2=O)C[C@](O)(C(=O)CO)CC3OC1CC(N)C(OC2CCCCO2)C(C)O1 (some centres undefined)
dose: 0.78 mg/kg/injection, schedule: Q04DX003 (ip), vehicle: water
  T/C: 122 % of control
dose: 3.12 mg/kg/injection, schedule: Q04DX003 (ip), vehicle: water
  T/C: 153 % of control and 240 % of control
dose: 3.13 mg/kg/injection, schedule: Q04DX003 (ip), vehicle: water
  T/C: 161 % of control
dose: 3.75 mg/kg/injection, schedule: Q01DX005 (ip), vehicle: water
  T/C: 154 % of control
dose: 6.25 mg/kg/injection, schedule: Q04DX003 (ip), vehicle: water
  T/C: 192 % of control and 200 % of control and 280 % of control
dose: 7.5 mg/kg/injection, schedule: Q01DX005 (ip), vehicle: water
  T/C: 151 % of control
dose: 12.5 mg/kg/injection, schedule: Q04DX003 (ip), vehicle: water
  T/C: 154 % of control and 416 % of control
dose: 15.0 mg/kg/injection, schedule: Q01DX005 (ip), vehicle: water
  T/C: 196 % of control
dose: 25.0 mg/kg/injection, schedule: Q04DX003 (ip), vehicle: water
  T/C: 91 % of control
dose: 50.0 mg/kg/injection, schedule: Q04DX003 (ip), vehicle: water
  T/C: 87 % of control

## COc1ccc(-c2nccc3cc(OC)c(OC)cc23)cc1O
dose: 25.0 mg/kg/injection, schedule: Q01DX009 (ip), vehicle: other
  T/C: 100 % of control
dose: 50.0 mg/kg/injection, schedule: Q01DX009 (ip), vehicle: other
  T/C: 86 % of control
dose: 100.0 mg/kg/injection, schedule: Q01DX009 (ip), vehicle: other
  T/C: 86 % of control

## Cc1ccccc1CC1c2[nH]c3ccccc3c2CCN1C (centres undefined)
[5]
  T/C: 109 % of control
[6]
  T/C: 109 % of control

## Cn1c(N)c(-n2[nH]c(=O)n(-c3ccccc3)c2=O)c(=O)n(C)c1=O
[7]
  T/C: 106 % of control
[8]
  T/C: 95 % of control
[9]
  T/C: 98 % of control

## Cc1ccc(/C=C/c2ccc([N+](=O)[O-])cc2)cc1
[10]
  T/C: 105 % of control and 97 % of control
[11]
  T/C: 90 % of control and 96 % of control
[12]
  T/C: 93 % of control
dose: 400.0 mg/kg/injection, schedule: Q01DX005 (ip), vehicle: Klucel (hydroxypropylcellulose) (HPC)
  T/C: 102 % of control and 103 % of control

## O=C1C(Cl)=C(NCCO)C(=O)c2ccccc21
dose: 25.0 mg/kg/injection, schedule: Q01DX009 (ip), vehicle: Klucel (hydroxypropylcellulose) (HPC)
  T/C: 101 % of control
[7]
  T/C: 106 % of control
[8]
  T/C: 112 % of control
[9]
  T/C: 102 % of control

## Cc1cccc(C)c1NC(=O)CCC(=O)CC(=O)c1ccncc1
[5]
  T/C: 103 % of control
[6]
  T/C: 105 % of control
[13]
  T/C: 101 % of control

## O=C(CCl)N1CCN(C/C=C/c2ccccc2)CC1
dose: 60.0 mg/kg/injection, schedule: Q01DX005 (ip), vehicle: saline
  T/C: 103 % of control
dose: 120.0 mg/kg/injection, schedule: Q01DX005 (ip), vehicle: saline
  T/C: 105 % of control

## COc1ccc(N=Nc2c(-c3ccccc3)nn(C(=S)S)c2-c2ccccc2)cc1
[2]
  T/C: 93 % of control
[3]
  T/C: 96 % of control
[4]
  T/C: 93 % of control

## CNC(=S)N(C1CCCCC1)C1CCCCC1
[14]
  T/C: 103 % of control
[15]
  T/C: 105 % of control
[1]
  T/C: 100 % of control

## CN(CCCCC1CCCN(C(=O)c2ccccc2)C1)C(=O)c1ccccc1 (centres undefined)
dose: 12.5 mg/kg/injection, schedule: Q01DX005 (ip), vehicle: Klucel (hydroxypropylcellulose) (HPC)
  T/C: 96 % of control
dose: 25.0 mg/kg/injection, schedule: Q01DX005 (ip), vehicle: Klucel (hydroxypropylcellulose) (HPC)
  T/C: 94 % of control
[10]
  T/C: 103 % of control and 97 % of control

## CN1CCN(CC2CCOc3cc(Cl)ccc3C2=O)CC1 (centres undefined)
dose: 100.0 mg/kg/injection, schedule: Q04DX003 (ip), vehicle: saline
  T/C: 105 % of control
dose: 200.0 mg/kg/injection, schedule: Q04DX003 (ip), vehicle: saline
  T/C: 108 % of control

## CC1=CC(=O)[C@@H](O)[C@]2(C)[C@H]3[C@@]4(O)OC[C@]35[C@H]([C@@H](C)[C@H]4O)[C@@H](OC(=O)CC(C)C)C(=O)O[C@@H]5C[C@@H]12
dose: 0.5 mg/kg/injection, schedule: Q01DX005 (ip), vehicle: saline + alcohol
  T/C: 104 % of control and 122 % of control
dose: 1.0 mg/kg/injection, schedule: Q01DX005 (ip), vehicle: saline + alcohol
  T/C: 112 % of control

## C/C=C1/CN2CCc3c([nH]c4ccccc34)C2CC1C(Cc1c[n+]2c(c3[nH]c4ccccc4c13)CC1C(C(=O)OC)=COC(C)C1C2)C(=O)OC (centres undefined)
dose: 25.0 mg/kg/injection, schedule: Q01DX009 (ip), vehicle: saline with Tween-80
  T/C: 91 % of control
[14]
  T/C: 89 % of control
[15]
  T/C: 90 % of control

## CCO/C=C1/N=C(c2cc(OC)cc(OC)c2)OC1=O
dose: 15.0 mg/kg/injection, schedule: Q01DX005 (ip), vehicle: saline with Tween-80
  T/C: 104 % of control
dose: 30.0 mg/kg/injection, schedule: Q01DX005 (ip), vehicle: saline with Tween-80
  T/C: 101 % of control
[5]
  T/C: 90 % of control and 96 % of control
[13]
  T/C: 87 % of control

## Cc1ccc(S(=O)(=O)C(C#N)(CCC(=O)/C=C/c2ccccc2)CCC(=O)/C=C/c2ccccc2)cc1
[10]
  T/C: 99 % of control
[11]
  T/C: 92 % of control
[12]
  T/C: 92 % of control
